Source: PMC12668308, “A Novel Antimalarial Agent that Inhibits Protein Synthesis in Plasmodium falciparum” (Angewandte Chemie (International Ed. in English), 2025)

Tests used:
Experiment in all cases: iSPP profiling, P. falciparum lysate
Assay type in all cases: binding, Plasmodium falciparum
Settings in all cases: 100 µM compound 34
[1] = system: Dihydrolipoyl dehydrogenase (W7JVD0)
Method: (§1) P. falciparum NF54 lysates were extracted as described in ^[26^] . The parasite asynchronous culture was extracted once 3-5% parasitemia was reached. Saponin lysis was done as described in 2.2.10. Once the parasite pellet was obtained, 2.5 volumes of ice-cold lysis buffer (50 mM Tris/HCl pH 7.5 (Avantor), 5% glycerol (Sigma-Aldrich), 150 mM NaCl (Carl Roth), 1.5 mM MgCl2 (Sigma-Aldrich), 1 mM DTT (Carl Roth), 0.8% IGEPAL CA-630 (Sigma-Aldrich), 1X Halt Protease and Phosphatase Inhibitor-Cocktails EDTA-free (Thermo Fisher Scientific)) was added to the parasite pellet. The lysate solution was subjected to three cycles of flash freeze-thaw with liquid nitrogen and ddH2O at RT. The lysates were centrifuged at 20,000 g for 20 minutes at 4 °C. The soluble protein fraction (supernatant) was collected and the protein content was quantified using the BCA assay (Pierce™ BCA Protein Assay Kit, Thermo Fisher Scientific). The lysate was stored at -80 °C until further use.
(§2) The P. falciparum lysate was thawed on ice and diluted to 0.8 mg/mL. The lysate was aliquoted, and each aliquot was incubated with either a vehicle control (DMSO), 34 (dissolved in DMSO), or varying concentrations of 31 (dissolved in DMSO) at 0.01 µM, 0.1 µM, 10 µM, 50 µM, and 100 µM. Subsequently, the samples were incubated at room temperature for 30 minutes using a rotating mixer. After distribution into a 96-well plate, the samples were treated with increasing concentrations of A.E.A. (v/v) ranging from 14% to 28% (14, 16, 18, 20, 22, 24, 26, and 28%). Following a 20-minute incubation at 37°C with shaking at 750 rpm, the samples were centrifuged at 4400 g for 35 minutes to remove precipitated proteins. The soluble fractions were then pooled in equal volumes into a single sample using the Bravo Automated Liquid Handling Platform. The pooled samples were subsequently prepared for LC-MS/MS analysis.
(§3) The raw LFQ-DIA intensity values of biological replicates across all conditions were normalized to the median abundance using Excel. The normalized values were then log2 transformed in Perseus (v2.0.10.0).^[58^] Missing values were imputed from a normal distribution (width 0.3, down shift 1.5), and p-values were obtained using a two-sample t-test over replicates with a permutation-based false discovery rate correction (FDR 0.05). Volcano plots were generated in RStudio using the EnhancedVolcano package (v. 1.20.0), ^[59^] plotting proteins by statistical significance (y-axis: –Log10 p-value) versus the magnitude of change (x-axis: log2 fold change of protein intensities for each compound condition relative to the vehicle control). The heatmap was generated in Perseus (v2.0.10.0). Dose-dependent curves were generated using normalized protein intensity values, expressed as a ratio to the vehicle control. Plots were created in GraphPad Prism (v8.3.0) using a nonlinear regression model.

[2] = system: Dual specificity protein phosphatase (W7KAW5)
Method: as §1, §2, §3

[3] = system: PCI domain-containing protein (W7JUC8)
Method: as §1, §2, §3

[4] = system: Pre-mRNA-splicing factor BUD31 (W7K941)
Method: as §1, §2, §3

[5] = system: RRM domain-containing protein (W7KAG3)
Method: as §1, §2, §3

[6] = system: Ribosome associated membrane protein RAMP4 (W7KMX9)
Method: as §1, §2, §3

SPATR (W7KAV2) = system: SPATR (W7KAV2)
Method: as §1, §2, §3

[7] = system: Small nuclear ribonucleoprotein Sm D1 (W7K576)
Method: as §1, §2, §3

Stevor (W7K9U2) = system: Stevor (W7K9U2)
Method: as §1, §2, §3

[8] = system: Sugar phosphate phosphatase (W7K268)
Method: as §1, §2, §3

[9] = system: Uncharacterized protein (W7KBT1)
Method: as §1, §2, §3

[10] = system: Uncharacterized protein (W7KFE6)
Method: as §1, §2, §3

[11] = system: WD repeat-containing protein 82 (W7K1H5)
Method: as §1, §2, §3

Compound: O=C(Nc1cc(CN2CCOCC2)ccc1F)c1cccc(Oc2cc(C(F)(F)F)ccn2)c1 [Compound 34, N-(2-Fluoro-5-(morpholinomethyl)phenyl)-3-((4-(trifluoromethyl)pyridin-2-yl)oxy)benzamide]
- log2FC [1]: 0.3119
- log2FC [2]: -0.5678
- log2FC [3]: -0.3885
- log2FC [4]: 0.5199
- log2FC [5]: 0.4449
- log2FC [6]: 0.4453
- log2FC (SPATR (W7KAV2)): 0.3835
- log2FC [7]: 0.401
- log2FC (Stevor (W7K9U2)): 0.3642
- log2FC [8]: -0.3813
- log2FC [9]: 0.318
- log2FC [10]: 0.3535
- log2FC [11]: -0.6516
